# Data: patent US11788147B2, “Markers of triple-negative breast cancer and uses thereof” (Vanderbilt University, priority 2011, dated 2023)
# Like-named read-outs stand apart in the source and are kept apart here.
# What was measured:
# [1] = system: mesenchymal-like TNBC cell lines; assay: Cell proliferation/viability assay and IC50 determination (Example 3); assay type: cell-based, human; conditions: 72 hours; basal-like, mesenchymal-like and normal cells compared
# Method: Cell proliferation/viability assays and IC50 determinations. All cell lines were maintained in culture as previously described herein. Breast cancer cell lines and HMECs were seeded (3,000-10,000 cells) in quadruplicate wells in 96-well plates. Media was then replaced with either fresh media (control) or media containing half-log serial dilutions of the following drugs: Sorafenib, OSi-906, BMS-754807 and PF2341066 purchased from Selleck Chemicals (Houston, TX) Viability was determined from measuring fluorescent intensity after metabolic reduction of Alamar Blue in the presence/absence of drug after 72 hours. Viability assays were performed in triplicate and replicates were normalized to untreated wells. Inhibitory concentration (IC50) values were determined after double-log transformation of dose response curves.
# [2] = system: mesenchymal-like (M and MSL) TNBC cell lines; assay: Cell proliferation/viability assay (alamarBlue) and IC50 determination; assay type: cell-based, human; conditions: 72 hours
# Method: (§1) Cell proliferation/viability assays and IC50 determinations. All cell lines and culture conditions used can be found in Supplemental Methods (Table 5). Short tandem repeat (STR) DNA fingerprinting analysis was performed on all TNBC cell lines used in this study (Cell Line Genetics). […] Breast cancer cell lines and HMECs were seeded (3,000-10,000 cells) in quadruplicate wells in 96-well plates. […] Viability was determined from measuring fluorescent intensity after metabolic reduction of alamarBlue in the presence/absence of the drug after 72 hours. Viability assays were performed in triplicate, and replicates were normalized to untreated wells. […] For analysis of cell-line drug assays, data generated from the different cell lines representative of TNBC subtypes were compared using the nonparametric Mann-Whitney U test. All analyses and graphic representations were performed using Prism software (version 4.0c; GraphPad Software), and values are represented as the mean±SEM.
# LAR TNBC cell lines = assay: as above; assay type: cell-based, human; conditions: 72 hours
# Method: (§2) Cell proliferation/viability assays and IC50 determinations. All cell lines and culture conditions used can be found in Supplemental Methods (Table 5). Short tandem repeat (STR) DNA fingerprinting analysis was performed on all TNBC cell lines used in this study (Cell Line Genetics). […] Breast cancer cell lines and HMECs were seeded (3,000-10,000 cells) in quadruplicate wells in 96-well plates. […] Medium was then replaced with either fresh medium (control) or medium containing half-log serial dilutions of the following drugs: 0.3-30 μM olaparib (ChemieTek), 0.3-30 μM veliparib (ChemieTek), 1-100 μM bicalutamide (IPR Pharmaceutical), 0.3-30 μM cisplatin (APP Pharmaceutical), 3-300 nM NVP-BEZ235 (Chemdea), 10-1000 nM 17-DMAG (ChemieTek), and 0.1-10 μM dasatinib (LC Laboratories). Viability was determined from measuring fluorescent intensity after metabolic reduction of alamarBlue in the presence/absence of the drug after 72 hours. Viability assays were performed in triplicate, and replicates were normalized to untreated wells. […] For analysis of cell-line drug assays, data generated from the different cell lines representative of TNBC subtypes were compared using the nonparametric Mann-Whitney U test. All analyses and graphic representations were performed using Prism software (version 4.0c; GraphPad Software), and values are represented as the mean±SEM.
# [3] = system: basal-like (BL1 and BL2) TNBC cell lines; assay: as above; assay type: cell-based, human
# Method: as §2
# [4] = system: activated caspase 3/7 in AR-positive TNBC cell lines; assay: Caspase 3/7 activity (Caspase-Glo); assay type: cell-based, human; conditions: 48 h; ADR 3 μM, bicalutamide 50 μM, GDC-0941 3 μM, GDC-0980 1 μM
# Method: Cell lines were seeded in triplicate in 96-well plates. Media was removed and replaced with media containing vehicle (control) or indicated drugs. After 48 hrs, apoptosis was determined by measuring luciferase from activated caspase 3/7 upon addition of Caspase-Glo reagent (Promega, Madison, WI). Relative levels of caspase activity were normalized to viable cell number determined by metabolic reduction of Alamar blue.
# [5] = system: BRCA1-mutant MDA-MB-436 cell line; assay: Cell proliferation/viability assay (alamarBlue) and IC50 determination; assay type: cell-based; conditions: Homo sapiens, 72 hours, viability
# Method: as §2
# [6] = system: BRCA1-null cell line HCC1937; assay: as above; assay type: cell-based; conditions: Homo sapiens, 72 hours, viability
# Method: as §2
# [7] = system: BRCA2-mutant cell line HCC1599; assay: as above; assay type: cell-based; conditions: Homo sapiens, 72 hours, viability
# Method: as §2
# TNBC cell lines = assay: Cell proliferation/viability assay (alamarBlue), panel of TNBC cell lines (Example 1); assay type: cell-based, human
# Method: as §1
# [8] = system: SUM185PE, CAL-148, CAL-51 and SUM159PT xenograft tumors; assay: Xenograft tumor studies (Example 1), PIK3CA-mutant lines; assay type: in vivo, mice; conditions: NVP-BEZ235 per oral 50 mg/kg/d, approximately 3 weeks
# Method: Xenograft tumor studies. Five-week-old female athymic nude-Foxnlnu mice (Harlan Sprague-Dawley) were injected (s.c.) with either approximately 5×10^6 (CAL-51, HCC1806, MDA-MB-468, and SUM185PE) or approximately 10×10^6 (CAL-148 and SUM159PT) cells suspended in medium (200 μl) into each flank using a 22-gauge needle. […] Once tumors reached a volume of 25-50 mm^3, mice were randomly allocated to treatment or vehicle arms. Treatments included bicalutamide per oral (100 mg/kg/d), cisplatin i.p. (8 mg/kg/wk), or NVP-BEZ235 per oral (50 mg/kg/d) in 1:9 N-methylpyrolidone: PEG300. Tumor diameters were serially measured at the indicated times with digital calipers, and tumor volumes were calculated as width^2×length/2. Data points reflect the means and SEM for 16 tumors per treatment.
# [9] = system: CAL-148 and MDA-MB-453 xenograft tumors; assay: Xenograft tumor studies (Example 2); assay type: in vivo, mice; conditions: single agent alone; bicalutamide 100 mg/kg/d, GDC0980 7.5 mg/kg/d, NVP-BEZ235 50 mg/kg/d p.o.
# Method: Five-week-old female athymic nude-Foxnlnu mice (Harlan Sprague-Dawley) were injected (s.c.) with either ˜4×10^6 (CAL-148) or ˜10×10^6 (MDA-MB-453) cells suspended in media (200 μL) into each flank using a 22-gauge needle. Once tumors reached a volume of 25-50 mm^3, mice were randomly allocated to treatment or vehicle arms. Treatments included bicalutamide p.o. (100 mg/kg/d), GDC0980 p.o. (7.5 mg/kg/d) in 5% DMSO, 0.5% carboxymethyl cellulose (MCT) or NVP-BEZ235 p.o. (50 mg/kg/d) in 0.5% MCT or the combination of bicalutamide and either GDC-0980 or NVP-BEZ235 according to the above concentrations. Tumor diameters were serially measured at the indicated times with digital calipers and tumor volumes were calculated as width^2×length/2.
# MDA-MB-453 cells = assay: Sub-G1 (sub 2N DNA) fraction by FACs analysis; assay type: cell-based, human
# Method: FIGS. 31A-31B: Combined inhibition of AR and PI3K increases apoptotic cell death in AR+TNBC cell lines. (31A) Bar graphs display relative caspase 3/7 activity (RLU) normalized to viable cell number 48 hrs after treatment with vehicle, positive control (3 μM adriamycin, ADR), 50 μM bicalutamide (CDX) and 3 μM GDC-0941 or 1 μM GDC-0980 alone or in combination with CDX. (31B) Histograms show representative cell cycle analysis of MDA-MB-453 cells treated with similar conditions as above. Indicated percentages represent the fraction of hypodiploid DNA (sub-G1), indicative of late stage apoptotic DNA fragmentation.
# In addition to caspase activation, the percentage of sub 2N DNA (sub-G1)-containing cells (indicative of late stage apoptotic DNA fragmentation) was quantitated by FACs analysis. […] Therefore, the decreased viability of AR-positive TNBC cell lines treated with a combination of AR and PI3K inhibitors can be, in part, attributed to apoptosis.
# [10] = system: AR-expressing TNBC cell lines; assay: Viability of AR-expressing TNBC cell lines, PI3K inhibitors alone or with bicalutamide (2-D); assay type: cell-based, human; conditions: alone, 72 h
# Method: All cell lines were maintained in culture as previously described (JCI ref). Breast cancer cell lines and HMECs were seeded (3,000-10,000 cells) in quadruplicate wells in 96-well plates. […] Viability was determined from measuring fluorescent intensity after metabolic reduction of Alamar Blue in the presence/absence of drug after 72 hours. Viability assays were performed in triplicate and replicates were normalized to untreated wells.
# [11] = system: p-AKT, p-S6 and AR in AR-expressing TNBC cell lines; assay: Immunoblot analysis of the PI3K/mTOR pathway and AR; assay type: cell-based, human; conditions: for activated AKT: 24 h or 48 h
# Method: Immunoblot analysis was performed on cell lystates from untreated cells or cells treated alone or in combination with CDX, GDC-0941 and GDC-0980 to evaluate attenuation of the PI3K/mTOR pathway. […] Cells were trypsinized, lysed and relative protein expression was determined by Western blot as previously described (JCI reference) with the following antibodies; the AR polyclonal antibody, SC-N20 (Santa Cruz Biotechnology), pS[…]/236 (Cell Signaling #4856), S6 (Cell Signaling #2317), pAKT-5473 (Cell Signaling #9271), AKT (Cell Signaling #9272), PARP (Cell Signaling #9542) and GAPDH (Millipore).
# [12] = system: CAL-148, MFM-223 and MDA-MB-453 cells; assay: 3-D forced suspension viability assay; assay type: cell-based, human; conditions: increasing doses, alone, 72 h; to a lesser degree than in 2-D
# Method: CAL-148, MFM-223 and MDA-MB-453 cells were plated (10,000 cells/well) in quadruplicate into 96-well plates coated with 0.9% agarose diluted in corresponding media. Following 5 d of growth, cells were then treated with increasing half-log concentrations of GDC-0941 (10-3000 nM), GDC0980 (1 nM −300 nM), BKM120 (10 nM-3000 nM) and NVP-BEZ235 (1 nM-300 nM) alone or in combination with 25 μM bicalutamide (CDX) for an additional 72 h, upon which cells were imaged and viability determined by Alamar blue.
# [13] = 72 hours, read-out: average IC50
smiles,measurement,setting,value
C[C@]1(O)C[C@@H](c2nc(-c3ccc4ccc(-c5ccccc5)nc4c3)c3c(N)nccn32)C1 [OSI-906],viability (half-maximal inhibitory concentration) across TNBC subtypes,[1],selectively inhibits viability of mesenchymal-like TNBC cell lines
CNC(=O)c1cc(Oc2ccc(NC(=O)Nc3ccc(Cl)c(C(F)(F)F)c3)cc2)ccn1 [sorafenib],viability (half-maximal inhibitory concentration) across TNBC subtypes,[1],selectively inhibits viability of mesenchymal-like TNBC cell lines
Cc1nc(Nc2ncc(C(=O)Nc3c(C)cccc3Cl)s2)cc(N2CCN(CCO)CC2)n1 [dasatinib],IC50,"[2]; Homo sapiens, mesenchymal-like subtypes (M and MSL)",22 µM
same,IC50,"LAR TNBC cell lines; Homo sapiens, LAR lines",88 µM
"CO[C@H]1/C=C\C=C(/C)C(=O)NC2=CC(=O)C(NCCN(C)C)=C(C[C@@H](C)C[C@H](OC)[C@H](O)[C@@H](C)/C=C(\C)[C@@H]1OC(N)=O)C2=O [17-DMAG, 17-dimethylaminoethylamino-17-demethoxy-geldanamycin]",IC50,[2]; mesenchymal-like cell lines,0.117 µM
same,IC50,LAR TNBC cell lines; LAR cell lines,0.016 µM
same,IC50,[3]; [13],0.081 µM
COc1cccc2c1C(=O)c1c(O)c3c(c(O)c1C2=O)C[C@@](O)(C(=O)CO)C[C@@H]3O[C@H]1C[C@H](N)[C@H](O)[C@H](C)O1 [adriamycin],caspase 3/7 activation,[4],robust caspase activation
C[C@@H](Oc1cc(-c2cnn(C3CCNCC3)c2)cnc1N)c1c(Cl)ccc(F)c1Cl [PF2341066],viability (half-maximal inhibitory concentration) across TNBC subtypes,[1],selectively inhibits viability of mesenchymal-like TNBC cell lines
C[C@]1(c2nc3c(C(N)=O)cccc3[nH]2)CCCN1 [veliparib],IC50,[5],18 µM
same,IC50,[6],4 µM
same,IC50,[7],> 30 µM
Cn1c(=O)n(-c2ccc(C(C)(C)C#N)cc2)c2c3cc(-c4cnc5ccccc5c4)ccc3ncc21 [NVP-BEZ235],IC50,"[2]; Homo sapiens, mesenchymal-like cell lines",0.044 µM
same,IC50,"LAR TNBC cell lines; Homo sapiens, LAR cell lines",0.037 µM
same,IC50,[3]; [13],0.116 µM
same,IC50,"[3]; Homo sapiens, 72 h, read-out: average IC50",0.201 µM
same,sensitivity (viability),TNBC cell lines; TNBC cell lines with activated PI3K/AKT signaling due to PIK3CA mutations or PTEN deficiency,highly sensitive
same,xenograft tumor response,[8],partial response or complete
same,tumor growth,[9],significantly decreased tumor growth
CC(O)(CS(=O)(=O)c1ccc(F)cc1)C(=O)Nc1ccc(C#N)c(C(F)(F)F)c1 (centres unmarked) [bicalutamide],IC50,"[2]; Homo sapiens, subset of mesenchymal-like cell lines that express low levels of AR (HS578T, BT549, CAL-51, MDA-MB-231)",361 µM
same,IC50,"LAR TNBC cell lines; Homo sapiens, LAR lines",227 µM
same,IC50,"[3]; Homo sapiens, 72 h, read-out: IC50",> 600 µM
same,IC50,"TNBC cell lines; Homo sapiens, majority of TNBC cell lines, read-out: IC50 not achieved using the highest dose",> 500 µM
same,sub-G1 fraction,"MDA-MB-453 cells; 48 h after treatment, increase from 5.25%",18.44%
CS(=O)(=O)N1CCN(Cc2cc3nc(-c4cccc5[nH]ncc45)nc(N4CCOCC4)c3s2)CC1 [GDC-0941],"viability, single agent",[10],displayed efficacy
same,activated AKT,[11],decreased activated AKT
same,caspase 3/7 activation,[4],caused caspase activation
same,sub-G1 fraction,"MDA-MB-453 cells; 48 h, alone",higher sub-G1 fraction
same,cell aggregate size and viability,[12],decreased cell aggregate size and viability
C[C@@]1(C(=O)Nc2ccc(F)nc2)CCCN1c1nc(Nc2cc(C3CC3)n[nH]2)c2cccn2n1 [BMS-754807],viability (half-maximal inhibitory concentration) across TNBC subtypes,[1],selectively inhibits viability of mesenchymal-like TNBC cell lines
Cc1c(CN2CCN(C(=O)[C@H](C)O)CC2)sc2c(N3CCOCC3)nc(-c3cnc(N)nc3)nc12 [GDC-0980],"viability, single agent",[10],displayed efficacy
same,activated AKT,[11],decreased activated AKT
same,AR levels,[11]; alone,decreased AR levels
same,mTOR activity as measured by levels of phosphorylated S6,[11]; compared with GDC-0941,more effective at decreasing mTOR activity
same,caspase 3/7 activation,[4],caused caspase activation
same,sub-G1 fraction,"MDA-MB-453 cells; 48 h, alone",higher sub-G1 fraction
same,cell aggregate size and viability,[12],decreased cell aggregate size and viability
same,tumor growth,[9],significantly decreased tumor growth
O=C(c1cc(Cc2n[nH]c(=O)c3ccccc23)ccc1F)N1CCN(C(=O)C2CC2)CC1 [olaparib],IC50,[5],14 µM
same,IC50,[6],> 100 µM
same,IC50,[7],> 100 µM
